Reference: US20130012493A1, “NOVEL SPIRO IMIDAZOLONE DERIVATIVES AS GLUCAGON RECEPTOR ANTAGONISTS, COMPOSITIONS, AND METHODS FOR THEIR USE” (priority 2010, published 2013)

Biological target: T1, recombinant human glucagon receptor (Homo sapiens, UniProt P47871)
T1 construct: expressed in transfected cells; host or cells: CHO (Chinese hamster ovary) cells
Assay: Inhibition of glucagon-stimulated intracellular cAMP assay
Format: cell-based
Conditions: CHO cells expressing recombinant human glucagon receptor, stimulated with 300 pM glucagon
Method: Inhibition of Glucagon-Stimulated Intracellular cAMP Assay
Chinese hamster ovary (CHO) cells expressing the recombinant human glucagon receptor were harvested with the aid of non-enzymatic cell dissociation solution (GIBCO 13151-014). The cells were then pelleted and suspended in the stimulation buffer (1×HBSS, 5 mM Hepes, 0.1% BSA, pH7.4 in presence of complete protease inhibitor and phosphodiesterase inhibitor). The adenylate cyclase assay was conducted following the LANCE cAMP Kit (Perkin Elmer, AD0262) instructions. Briefly, cells were preincubated with anti-cAMP antibody in the stimulation buffer with a final concentration of 3% DMSO for 30 minutes and then stimulated with 300 pM glucagon for 45 minutes. The reaction was stopped by incubating with the detection buffer containing Europium chelate of the Eu-SA/Biotin-cAMP tracer for 20 hours. The fluorescence intensity emitted from the assay was measured at 665 nm using PheraStar instruments. […] Standard cAMP concentrations were conducted concurrently for conversion of fluorescence signal to cAMP level. Data was analyzed using GraphPad Prism. IC50 values were calculated using non-linear regression analysis assuming single site competition. […] Some of the compounds of the invention shown in the examples measured less than about 5 μM in this assay; other examples measured less than about 500 nM; others less than about 100 nM.

T1 sequence (P47871 26-477): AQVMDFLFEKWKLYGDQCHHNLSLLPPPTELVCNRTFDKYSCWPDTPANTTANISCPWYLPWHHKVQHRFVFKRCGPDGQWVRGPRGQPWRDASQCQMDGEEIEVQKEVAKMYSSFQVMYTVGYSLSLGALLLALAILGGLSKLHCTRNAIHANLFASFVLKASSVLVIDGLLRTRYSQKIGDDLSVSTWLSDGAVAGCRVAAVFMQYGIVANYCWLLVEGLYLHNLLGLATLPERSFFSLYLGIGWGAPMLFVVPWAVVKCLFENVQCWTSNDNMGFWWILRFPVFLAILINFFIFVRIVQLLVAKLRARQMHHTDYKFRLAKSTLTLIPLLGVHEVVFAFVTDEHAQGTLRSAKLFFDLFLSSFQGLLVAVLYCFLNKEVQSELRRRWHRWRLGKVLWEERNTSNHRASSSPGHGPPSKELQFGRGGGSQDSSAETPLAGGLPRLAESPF

| IC50 | SMILES |
| --- | --- |
| 290 nM | CC(C)(C)CC[C@H](c1ccc(C(=O)NCc2nn[nH]n2)cc1)N1C(=O)C(C2CCCCC2)=NC12CCC(C(C)(C)C)CC2 (some centres unmarked) [Example 9.99] |
| 209 nM | CC[C@H](c1ccc(C(=O)NCCC(=O)O)cc1)N1C(=O)C(N2CCCCC2)=NC12CCC(C(C)(C)C)CC2 (some centres unmarked) [Example 10.4] |
